# According to patent US20230390272A1 (PRILENIA NEUROTHERAPEUTICS LTD., priority 2020, published 2023):
# Values joined by “and” are separate entries in the source; they are usually repeats but may differ in a detail not shown here. Equal values may be shown once. Read-outs that look alike come from different tables or passages of the source.
# Experiments:
# [1] = tested on: B104 neuroblastoma cells; assay: BDNF release from B104 cells, in-situ ELISA; assay type: cell-based, rat; settings: 5 days, vs untreated control
# [2] = biological target: Sigma-1 Receptor (S1R) (Homo sapiens (Human), UniProt Q99720); assay: In-vitro binding assay, Sigma-1 receptor; settings: for S1R fold selectivity (S2R/S1R): ratio S2R Ki/S1R Ki
# Experimental: (§1) In-vitro binding assays performed at Eurofins Panlabs Taiwan, Ltd. Specific ligand binding was determined in the presence of an excess of unlabelled ligand.
# [3] = biological target: Sigma-2 receptor (S2R) (Homo sapiens (Human), UniProt Q5BJF2); assay: In-vitro binding assay, Sigma-2 receptor; settings: Cheng Prusoff equation
# Experimental: as §1
# [4] = tested on: rodents exhibiting symptoms of anxiety; settings: periodic administration, paper example
# [5] = tested on: Sprague-Dawley male rats; settings: FST day 8
# Text: On day 8, rats were again placed in a water tank, and time spent immobile measured.
# Sprague-Dawley male rats, 6 weeks old were used. Rats were pre-tested on day 1 to ensure stable and high duration of immobility during the 5-min test session.
# [6] = tested on: patient diagnosed with anxiety or depression; settings: periodic administration, intravenous or oral, paper example
# [7] = tested on: YAC128 HD mice; settings: early treatment from 1.5 months, 30 mg/kg
# Experimental: (§2) Animals. […] Mice were bred at the Biological Resource Centre (Agency for Science, Technology and Research, ASTAR), and group-housed with littermates of mixed genotype. Animals were maintained under a 12-h light cycle (lights on at 09:00) in a clean facility, and given free access to food and water. Experiments were performed with the approval of the Institutional Animal Care and Use Committee at the Biomedical Sciences Institute (ASTAR) and in accordance with their approved guidelines.
# (§3) Animals were weighed every two weeks to ensure the correct dose was maintained.
# (§4) Mice were divided into three groups. […] One cohort was behaviorally tested every two months commencing at 2 months of age. Mice were tested for psychiatric function (open field, elevated plus maze, and forced swim test). Tests were conducted at a set time during the day, prior to drug administration.
# Anxiety-like behavioral tests. The open-field (OF) and elevated plus maze (EPM) tests are used to assess anxiety-like behavioral in rodents. The time spent in the center of the arena in the OF and the time spent in the open arms of the maze in the EPM are considered measures of anxiety-like behavior.
# [8] = tested on: Male NMRI mice; settings: 30 min before test
# Text: Animals were assigned according to the experimental plan to one of the 4 test boxes run simultaneously.
# The number of marbles covered by sawdust were counted. The experimenter also observed the animals for obvious inhibition of general activity (locomotor activity).
# [9] = biological target: D3Rs (Homo sapiens (Human), UniProt P35462); settings: cited from earlier work
# [10] = biological target: D2Rs (Homo sapiens (Human), UniProt P14416); settings: cited from earlier work
# [11] = tested on: Male Sprague-Dawley rats; settings: 30 mg/kg p.o., 30 min and 120 min after administration
# Experimental: Male Sprague-Dawley rats (270-400 g bodyweight) were housed in groups of two in a temperature (20±2° C.) and humidity (50-60%) controlled colony room under a non-reversed 12 (6-18 on)/12 h light-dark cycle with food and water ad libitum except during the actual experiments. 4 rats were used for each drug dose and the vehicle-treated control group.
# USV was recorded by a microphone and processed by an interface to select USV signals and to digitize the resulting signals for automatic processing. In the priming phase, each rat was placed in the test chamber. After a 2 min time period, a series of at most ten shocks (trials), 1.8 mA for 0.3 s, separated by 20 s shock-free intervals, was delivered via the grid floor of the test chamber. In the shock-free intervals the occurrence of ultrasonic vocalization (22±5 kHz) was automatically recorded, and the duration of ultrasonic vocalization was calculated immediately. The priming session was terminated either when the rat constantly vocalized at least for 10 s on three consecutive trials or after the tenth trial. Rats not responding with USV on three consecutive trials were excluded from the test. In the actual test performed on the next day, each rat received 5 initial shocks (1.8 mA for 0.3 s, separated by 20 s shock-free intervals) in the test chamber, and the duration of USV (22+4 kHz) was recorded during the following 3 min period.
# [12] = tested on: HD patients; settings: 45 mg bid
# Text: PBA-S includes behavioral assessments of depressed mood, anxiety, apathy and irritability.
# The lack of initiative subscale of the PBA-S is a measure of apathy in HD patients. Apathy is a symptom common to HD and depression.
# The Problem Behaviors Assessment-Short (PBA-s) scale, is a measure of psychiatric symptoms including anxiety, depression and apathy. The PBA-s is an interview designed specifically for rating the severity and frequency of behavioral abnormalities in HD. PBA-S includes behavioral assessments of depressed mood, anxiety, apathy and irritability. This scale is widely used in HD clinical trials and recommended as a measure of screening behavioral symptoms, including depression and anxiety. […] The lack of initiative subscale of the PBA-S is a measure of apathy in HD patients. Apathy is a symptom common to HD and depression.
# [13] = tested on: YAC128 HD mice
# Experimental: as §2, §3, §4
# Chain of Sigma-1 Receptor (S1R) (Q99720 whole entry, species assumed): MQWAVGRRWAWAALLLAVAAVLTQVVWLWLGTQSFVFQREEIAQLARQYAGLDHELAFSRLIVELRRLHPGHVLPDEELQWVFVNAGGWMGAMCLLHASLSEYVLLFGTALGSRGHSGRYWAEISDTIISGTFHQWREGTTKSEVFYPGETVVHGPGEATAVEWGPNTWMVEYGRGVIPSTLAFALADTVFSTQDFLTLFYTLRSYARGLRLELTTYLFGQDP
# Chain of D3Rs (P35462 whole entry): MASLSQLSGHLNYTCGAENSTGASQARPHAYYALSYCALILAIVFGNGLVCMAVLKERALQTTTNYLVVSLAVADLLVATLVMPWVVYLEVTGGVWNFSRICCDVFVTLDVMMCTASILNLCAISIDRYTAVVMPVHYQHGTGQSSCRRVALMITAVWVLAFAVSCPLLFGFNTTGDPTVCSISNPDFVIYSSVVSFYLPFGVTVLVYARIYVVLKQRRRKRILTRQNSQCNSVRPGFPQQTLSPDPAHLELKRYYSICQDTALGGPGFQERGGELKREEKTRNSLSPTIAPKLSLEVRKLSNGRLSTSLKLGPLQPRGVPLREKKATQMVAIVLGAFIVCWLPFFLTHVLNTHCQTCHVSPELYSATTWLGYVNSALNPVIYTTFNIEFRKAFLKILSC
# Chain of D2Rs (P14416 whole entry): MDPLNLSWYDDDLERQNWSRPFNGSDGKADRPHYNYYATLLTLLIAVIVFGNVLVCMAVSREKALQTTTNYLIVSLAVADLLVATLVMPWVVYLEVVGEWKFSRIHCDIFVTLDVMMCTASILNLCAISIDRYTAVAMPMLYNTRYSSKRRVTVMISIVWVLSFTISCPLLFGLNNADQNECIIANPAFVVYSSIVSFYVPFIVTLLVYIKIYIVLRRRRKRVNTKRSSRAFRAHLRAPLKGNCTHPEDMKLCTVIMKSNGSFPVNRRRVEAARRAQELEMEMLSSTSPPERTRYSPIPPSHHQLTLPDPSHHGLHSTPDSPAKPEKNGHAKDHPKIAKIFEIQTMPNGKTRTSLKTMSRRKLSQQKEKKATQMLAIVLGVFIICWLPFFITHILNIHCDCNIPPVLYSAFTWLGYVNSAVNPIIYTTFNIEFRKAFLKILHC
# Chain of Sigma-2 receptor (S2R) (Q5BJF2 whole entry, species assumed): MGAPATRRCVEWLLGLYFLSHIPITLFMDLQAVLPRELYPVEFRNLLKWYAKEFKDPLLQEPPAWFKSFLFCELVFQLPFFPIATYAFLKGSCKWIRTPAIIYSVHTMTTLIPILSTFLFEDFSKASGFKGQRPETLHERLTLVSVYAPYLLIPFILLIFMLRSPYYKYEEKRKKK
smiles,measurement,setting,value
CCCN1CCC(O)(c2cccc(S(C)(=O)=O)c2)CC1 [Compound 1],increase in BDNF secretion,[1]; Compound 1 1 μM alone,12.5%
same,S1R fold selectivity (S2R/S1R),[2],>270 fold
CCCN1CC[C@@H](c2cccc(S(C)(=O)=O)c2)[C@@H](O)C1 [Compound 4],change in BDNF secretion,[1]; Compound 4 0.001 μM alone,−1.5%
same,S1R fold selectivity (S2R/S1R),[2],>35 fold
"CCCN1CCC(c2cccc(S(C)(=O)=O)c2)CC1 [Pridopidine, 4-[3-(methylsulfonyl)phenyl]-1-propyl-piperidine]",Ki,[3],5450 nM
same,efficacy in treating anxiety,[4],effective in treating anxiety
same,decrease in immobility time,[5]; 3 mg/kg oral gavage daily for 7 days,38%
same,decrease in immobility time,[5]; 15 mg/kg oral gavage daily for 7 days,58%
same,efficacy in treating patient with anxiety or depression,[6],effective in treating the patient
same,increase in BDNF secretion,[1]; pridopidine 0.001 μM alone,13.6% and 13.5%
same,increase in BDNF secretion,[1]; pridopidine 0.005 μM alone,26%
same,increase in BDNF secretion,[1]; pridopidine 0.01 μM alone,3.4%
same,time spent in the center of the arena (open field),[7]; tested at 6 months,increased the time spent in the center of the arena
same,time spent in the open arms (elevated plus maze),[7]; tested at 8 months,decreased anxiety-like behavior
same,inhibition of marble-burying,[8]; 1 mg/kg p.o.,8%
same,inhibition of marble-burying,[8]; 3 mg/kg p.o.,49%
same,inhibition of marble-burying,[8]; 10 mg/kg p.o.,62%
same,inhibition of marble-burying,[8]; 30 mg/kg p.o.,73%
same,higher affinity towards the S1R vs D3Rs,[9],~30 fold
same,higher affinity towards the S1R vs D2Rs,[10],~500 fold
same,effect on USV duration,[11],significantly inhibited USV
same,PBA-S change from baseline vs placebo,"[12]; week 52, p=0.0603",−2.13 units
same,"PBA-S lack of initiative measure, change from baseline vs placebo","[12]; week 52, p=0.0704",−1.27 units
same,time spent immobile in forced swim test,"[13]; early treatment from 1.5 months, 30 mg/kg, 12 months of age",reduced the time spent immobile
same,"depressive-like behavior, immobility time in forced swim test","[13]; late (manifest) treatment from 8 months, escalating to 30 mg/kg oral gavage",significantly improves depressive-like phenotype
same,Ki,[2]; Cheng Prusoff equation,57 nM
